What was measured:
[1] = test system: Nucleic Acid; assay: Ratio of drug level in Sprague-Dawley rat brain to plasma assessed as 6-(5-chloropyrimidin-2-yl)-3-(4-(2-hydroxy-2-methylpropoxy)-3-methoxyphenyl)pyrrolo[1,2-f][1,2,4]triazin-4(3H)-one level at 5 mg/kg, po qd; assay type: ADME, organism-based
[2] = test system: Plasma; assay: Plasma concentration in Sprague-Dawley rat assessed as 6-(5-chloropyrimidin-2-yl)-3-(4-(2-hydroxy-2-methylpropoxy)-3-methoxyphenyl)pyrrolo[1,2-f][1,2,4]triazin-4(3H)-one level at 5 mg/kg, po qd at 8 hrs; assay type: ADME, organism-based; conditions: in vivo
[3] = test system: Brain; assay: Drug concentration in Sprague-Dawley rat brain assessed as 6-(5-chloropyrimidin-2-yl)-3-(4-(2-hydroxy-2-methylpropoxy)-3-methoxyphenyl)pyrrolo[1,2-f][1,2,4]triazin-4(3H)-one level at 5 mg/kg, po qd at 8 hrs; assay type: ADME, organism-based; conditions: in vivo, read-out: Drug uptake
[4] = test system: Plasma; assay: Plasma concentration in Sprague-Dawley rat assessed as ((R)-6-(5-chloropyridin-2-yl)-3-(4-(3-hydroxypyrrolidin-1-yl)-3-methoxyphenyl)pyrrolo[1,2-f][1,2,4]triazin-4(3H)-one level at 10 mg/kg, po qd at 8 hrs; assay type: ADME, organism-based; conditions: in vivo
[5] = test system: Nucleic Acid; assay: Ratio of drug level in Sprague-Dawley rat brain to plasma assessed as ((R)-6-(5-chloropyridin-2-yl)-3-(4-(3-hydroxypyrrolidin-1-yl)-3-methoxyphenyl)pyrrolo[1,2-f][1,2,4]triazin-4(3H)-one level at 10 mg/kg, po qd; assay type: ADME, organism-based
[6] = test system: Brain; assay: Drug concentration in Sprague-Dawley rat brain assessed as ((R)-6-(5-chloropyridin-2-yl)-3-(4-(3-hydroxypyrrolidin-1-yl)-3-methoxyphenyl)pyrrolo[1,2-f][1,2,4]triazin-4(3H)-one level at 10 mg/kg, po qd at 8 hrs; assay type: ADME, organism-based; conditions: in vivo, read-out: Drug uptake
[7] = test system: Plasma; assay: Plasma concentration in Sprague-Dawley rat assessed as (S)-6-(5-chloropyridin-2-yl)-3-(4-(3-(ethylsulfonyl)-2-hydroxypropoxy)-3-methoxyphenyl)pyrrolo[1,2-f][1,2,4]triazin-4(3H)-one level at 10 mg/kg, po qd at 8 hrs; assay type: ADME, organism-based; conditions: in vivo
[8] = test system: Nucleic Acid; assay: Ratio of drug level in Sprague-Dawley rat brain to plasma assessed as (S)-6-(5-chloropyridin-2-yl)-3-(4-(3-(ethylsulfonyl)-2-hydroxypropoxy)-3-methoxyphenyl)pyrrolo[1,2-f][1,2,4]triazin-4(3H)-one level at 10 mg/kg, po qd; assay type: ADME, organism-based
[9] = test system: Brain; assay: Drug concentration in Sprague-Dawley rat brain assessed as (S)-6-(5-chloropyridin-2-yl)-3-(4-(3-(ethylsulfonyl)-2-hydroxypropoxy)-3-methoxyphenyl)pyrrolo[1,2-f][1,2,4]triazin-4(3H)-one level at 10 mg/kg, po qd at 8 hrs; assay type: ADME, organism-based; conditions: in vivo, read-out: Drug uptake
[10] = test system: Brain; assay: Drug concentration in Sprague-Dawley rat brain assessed as 6-(4-chlorophenyl)-3-(4-(2-cyclopropyl-2-hydroxyethoxy)-3-methoxyphenyl)pyrrolo[1,2-f][1,2,4]triazin-4(3H)-one level at 10 mg/kg, po qd at 8 hrs; assay type: ADME, organism-based; conditions: in vivo, read-out: Drug uptake
[11] = Ratio of free drug level in brain of Sprague-Dawley rat assessed as 6-(4-chlorophenyl)-3-(4-(2-cyclopropyl-2-hydroxyethoxy)-3-methoxyphenyl)pyrrolo[1,2-f][1,2,4]triazin-4(3H)-one level at 3 mg/kg, po to Ki for rat MCHR1; assay type: ADME, organism-based; conditions: in vivo
[12] = test system: Nucleic Acid; assay: Ratio of drug level in Sprague-Dawley rat brain to plasma assessed as 6-(4-chlorophenyl)-3-(4-(2-cyclopropyl-2-hydroxyethoxy)-3-methoxyphenyl)pyrrolo[1,2-f][1,2,4]triazin-4(3H)-one level at 10 mg/kg, po qd; assay type: ADME, organism-based
[13] = test system: Rattus norvegicus; assay: Antiobesity activity in Sprague-Dawley rat assessed as body weight reduction at 3 mg/kg, po qd after 4 days relative to control; assay type: functional; conditions: 96 h
[14] = test system: Rattus norvegicus; assay: Antiobesity activity in Sprague-Dawley rat assessed as body weight reduction at 10 mg/kg, po qd after 4 days relative to control; assay type: functional; conditions: 96 h
[15] = test system: Brain; assay: Free drug level in Sprague-Dawley rat brain assessed as 6-(4-chlorophenyl)-3-(4-(2-cyclopropyl-2-hydroxyethoxy)-3-methoxyphenyl)pyrrolo[1,2-f][1,2,4]triazin-4(3H)-one level at 10 mg/kg, po qd at 20 hrs; assay type: ADME, organism-based; conditions: in vivo
[16] = test system: Brain; assay: Free drug level in Sprague-Dawley rat brain assessed as 6-(4-chlorophenyl)-3-(4-(2-cyclopropyl-2-hydroxyethoxy)-3-methoxyphenyl)pyrrolo[1,2-f][1,2,4]triazin-4(3H)-one level at 3 mg/kg, po qd at 20 hrs; assay type: ADME, organism-based; conditions: in vivo
[17] = test system: Brain; assay: Drug concentration in Sprague-Dawley rat brain assessed as 6-(4-chlorophenyl)-3-(4-(2-cyclopropyl-2-hydroxyethoxy)-3-methoxyphenyl)pyrrolo[1,2-f][1,2,4]triazin-4(3H)-one level at 10 mg/kg, po qd at 20 hrs; assay type: ADME, organism-based; conditions: in vivo, read-out: Drug uptake
[18] = test system: Plasma; assay: Plasma concentration in Sprague-Dawley rat assessed as 6-(4-chlorophenyl)-3-(4-(2-cyclopropyl-2-hydroxyethoxy)-3-methoxyphenyl)pyrrolo[1,2-f][1,2,4]triazin-4(3H)-one level at 10 mg/kg, po qd at 8 hrs; assay type: ADME, organism-based; conditions: in vivo
[19] = Ratio of free drug level in brain of Sprague-Dawley rat assessed as 6-(4-chlorophenyl)-3-(4-(2-cyclopropyl-2-hydroxyethoxy)-3-methoxyphenyl)pyrrolo[1,2-f][1,2,4]triazin-4(3H)-one level at 30 mg/kg, po to Ki for rat MCHR1; assay type: ADME, organism-based; conditions: in vivo
[20] = test system: Brain; assay: Drug concentration in Sprague-Dawley rat brain assessed as 6-(4-chlorophenyl)-3-(4-(2-cyclopropyl-2-hydroxyethoxy)-3-methoxyphenyl)pyrrolo[1,2-f][1,2,4]triazin-4(3H)-one level at 3 mg/kg, po qd at 20 hrs; assay type: ADME, organism-based; conditions: in vivo, read-out: Drug uptake
[21] = test system: Brain; assay: Drug concentration in Sprague-Dawley rat brain assessed as 6-(4-chlorophenyl)-3-(4-(2-cyclopropyl-2-hydroxyethoxy)-3-methoxyphenyl)pyrrolo[1,2-f][1,2,4]triazin-4(3H)-one level at 30 mg/kg, po qd at 20 hrs; assay type: ADME, organism-based; conditions: in vivo, read-out: Drug uptake
[22] = test system: Rattus norvegicus; assay: Antiobesity activity in Sprague-Dawley rat assessed as body weight reduction at 30 mg/kg, po qd after 4 days relative to control; assay type: functional; conditions: 96 h
[23] = Ratio of free drug level in brain of Sprague-Dawley rat assessed as 6-(4-chlorophenyl)-3-(4-(2-cyclopropyl-2-hydroxyethoxy)-3-methoxyphenyl)pyrrolo[1,2-f][1,2,4]triazin-4(3H)-one level at 10 mg/kg, po to Ki for rat MCHR1; assay type: ADME, organism-based; conditions: in vivo
[24] = test system: Plasma; assay: Fraction unbound in Sprague-Dawley rat plasma assessed as 6-(4-chlorophenyl)-3-(4-(2-cyclopropyl-2-hydroxyethoxy)-3-methoxyphenyl)pyrrolo[1,2-f][1,2,4]triazin-4(3H)-one level; assay type: ADME, cell-free
[25] = test system: Brain; assay: Free drug level in Sprague-Dawley rat brain assessed as 6-(4-chlorophenyl)-3-(4-(2-cyclopropyl-2-hydroxyethoxy)-3-methoxyphenyl)pyrrolo[1,2-f][1,2,4]triazin-4(3H)-one level at 30 mg/kg, po qd at 20 hrs; assay type: ADME, organism-based; conditions: in vivo
[26] = test system: Nucleic Acid; assay: Ratio of drug level in Sprague-Dawley rat brain to plasma assessed as (S)-6-(5-chloropyrimidin-2-yl)-3-(4-(3-(ethylsulfonyl)-2-hydroxypropoxy)-3-methoxyphenyl)pyrrolo[1,2-f][1,2,4]triazin-4(3H)-one level at 10 mg/kg, po qd; assay type: ADME, organism-based
[27] = test system: Plasma; assay: Plasma concentration in Sprague-Dawley rat assessed as (S)-6-(5-chloropyrimidin-2-yl)-3-(4-(3-(ethylsulfonyl)-2-hydroxypropoxy)-3-methoxyphenyl)pyrrolo[1,2-f][1,2,4]triazin-4(3H)-one level at 10 mg/kg, po qd at 8 hrs; assay type: ADME, organism-based; conditions: in vivo
[28] = test system: Brain; assay: Drug concentration in Sprague-Dawley rat brain assessed as (S)-6-(5-chloropyrimidin-2-yl)-3-(4-(3-(ethylsulfonyl)-2-hydroxypropoxy)-3-methoxyphenyl)pyrrolo[1,2-f][1,2,4]triazin-4(3H)-one level at 10 mg/kg, po qd at 8 hrs; assay type: ADME, organism-based; conditions: in vivo, read-out: Drug uptake
[29] = test system: Brain; assay: Drug concentration in Sprague-Dawley rat brain assessed as 6-(5-chloropyrimidin-2-yl)-3-(4-((3,3-difluoro-1-hydroxycyclobutyl)methoxy)-3-methoxyphenyl)pyrrolo[1,2-f][1,2,4]triazin-4(3H)-one level at 10 mg/kg, po qd at 8 hrs; assay type: ADME, organism-based; conditions: in vivo, read-out: Drug uptake
[30] = test system: Plasma; assay: Plasma concentration in Sprague-Dawley rat assessed as 6-(5-chloropyrimidin-2-yl)-3-(4-((3,3-difluoro-1-hydroxycyclobutyl)methoxy)-3-methoxyphenyl)pyrrolo[1,2-f][1,2,4]triazin-4(3H)-one level at 10 mg/kg, po qd at 8 hrs; assay type: ADME, organism-based; conditions: in vivo
[31] = test system: Nucleic Acid; assay: Ratio of drug level in Sprague-Dawley rat brain to plasma assessed as 6-(5-chloropyrimidin-2-yl)-3-(4-((3,3-difluoro-1-hydroxycyclobutyl)methoxy)-3-methoxyphenyl)pyrrolo[1,2-f][1,2,4]triazin-4(3H)-one level at 10 mg/kg, po qd; assay type: ADME, organism-based
[32] = test system: Plasma; assay: Plasma concentration in Sprague-Dawley rat assessed as (R)-6-(5-chloropyridin-2-yl)-3-(4-(2-cyclopropyl-2-hydroxyethoxy)-3-methoxyphenyl)pyrrolo[1,2-f][1,2,4]triazin-4(3H)-one level at 10 mg/kg, po qd at 8 hrs; assay type: ADME, organism-based; conditions: in vivo
[33] = test system: Nucleic Acid; assay: Ratio of drug level in Sprague-Dawley rat brain to plasma assessed as (R)-6-(5-chloropyridin-2-yl)-3-(4-(2-cyclopropyl-2-hydroxyethoxy)-3-methoxyphenyl)pyrrolo[1,2-f][1,2,4]triazin-4(3H)-one level at 10 mg/kg, po qd; assay type: ADME, organism-based
[34] = test system: Brain; assay: Drug concentration in Sprague-Dawley rat brain assessed as (R)-6-(5-chloropyridin-2-yl)-3-(4-(2-cyclopropyl-2-hydroxyethoxy)-3-methoxyphenyl)pyrrolo[1,2-f][1,2,4]triazin-4(3H)-one level at 10 mg/kg, po qd at 8 hrs; assay type: ADME, organism-based; conditions: in vivo, read-out: Drug uptake

## COc1cc(-n2cnn3cc(-c4ncc(Cl)cn4)cc3c2=O)ccc1OCC(C)(C)OC(=O)CN
[1]
  BPR: 0.5
[2]
  concentration: 2710 nM
[3]
  concentration: 1430 nM

## COc1cc(-n2cnn3cc(-c4ccc(Cl)cn4)cc3c2=O)ccc1N1CC[C@@H](OC(=O)[C@@H](N)C(C)C)C1
[4]
  concentration: 4590 nM
[5]
  BPR: 0.1
[6]
  concentration: 664 nM

## CCS(=O)(=O)C[C@H](COc1ccc(-n2cnn3cc(-c4ccc(Cl)cn4)cc3c2=O)cc1OC)OC(=O)CN
[7]
  concentration: 15600 nM
[8]
  BPR: 0.03
[9]
  concentration: 401 nM

## COc1cc(-n2cnn3cc(-c4ccc(Cl)cc4)cc3c2=O)ccc1OCC(OC(=O)[C@@H](N)C(C)C)C1CC1 (some centres undefined)
[10]
  concentration: 3740 nM
[11]
  Ratio: 3.6
[12]
  BPR: 3
[13]
  inhibition in vivo at 3 mg/kg: 0%
[14]
  inhibition in vivo at 10 mg/kg: 0%
[15]
  Drug uptake(free): 24 nM
[16]
  Drug uptake(free): 10 nM
[17]
  concentration: 7980 nM
[18]
  concentration: 1250 nM
[19]
  Ratio: 16
[20]
  concentration: 3420 nM
[21]
  concentration: 14800 nM
[22]
  inhibition in vivo at 30 mg/kg: 2.5%
[23]
  Ratio: 8.6
[24]
  Fu: 0.3%
[25]
  Drug uptake(free): 44 nM

## CCS(=O)(=O)C[C@H](COc1ccc(-n2cnn3cc(-c4ncc(Cl)cn4)cc3c2=O)cc1OC)OC(=O)CN
[26]
  BPR: 0.03
[27]
  concentration: 3960 nM
[28]
  concentration: 125 nM

## COc1cc(-n2cnn3cc(-c4ncc(Cl)cn4)cc3c2=O)ccc1OCC1(OC(=O)CN)CC(F)(F)C1
[29]
  concentration: 805 nM
[30]
  concentration: 1130 nM
[31]
  BPR: 0.7

## COc1cc(-n2cnn3cc(-c4ccc(Cl)cn4)cc3c2=O)ccc1OC[C@H](OC(=O)CN)C1CC1
[32]
  concentration: 7450 nM
[33]
  BPR: 0.2
[34]
  concentration: 1150 nM
